{"source": "patent US9868784B2", "about": "“Antibodies against the S100P protein for the treatment and diagnosis of cancer” (LYKERA BIOMED SA, priority 2011, dated 2018)", "molecules": {"B1": {"name": "S100P: human recombinant S100P protein (SEQ ID NO: 2) expressed in E. coli, used as stimulus (protein)", "chain": "GSHMTELETAMGMIIDVFSRYSGSEGSTQTLTKGELKVLMEKELPGFLQSGKDKDAVDKLLKDLDANGDAQVDFSEFIVFVAAITSACHKYFEKAGLK", "modifications": "Human"}}, "key": {"[1]": {"test_system": "human pancreatic BxPC3 tumors", "assay": "Orthotopic BxPC3-luc pancreatic tumor model, tumor progression and metastases (TMPN score, bioluminescence)", "format": "in vivo, nude mice", "design": "key to Nodes score / Tumor score / Organ Metastases, Liver score / Organ Metastases, Lung score / Peritoneal Metastases, Diaphragm score / Peritoneal Metastases, Kidney score / Peritoneal Metastases, Adrenals score / Peritoneal Metastases, Intestine score / Peritoneal Metastases, Peritoneum score: TMPN category scores per Table 2 (modified Hennig 2005); key to Total Score: product of T, M, P and N scores per animal", "details": "individual animal, end of experiment", "procedure": "The antitumorigenic and antimetastatic capability of the monoclonal antibodies 3F8 and 2H8 against S100P was assessed in an orthotopic tumor model using the human adenopancreatic BxPC3 tumor cell line stably expressing a lentiviral luciferase reporter gene.\nBxPC3-luc cell line in exponential growth were harvested with trypsin-EDTA (0.05%/0.02%) (Invitrogen), washed, and examined for viability by trypan blue dye exclusion. Viability was greater than 95%. For primary tumor growth, cells (5×105 in 0.1 mL DMEM high glucose) were injected into the pancreas of 5 nude mice.\nFour weeks after cell injection, when tumors became established (300-350 mm3), two animals were killed, tumors were obtained, sliced in 5 mm3 pieces approximately and implanted in 15 new mice. Mice were divided into 3 groups of five animals each one.\nTumor growth and metastasis were followed by bioluminescent imaging, palpation of animals and the examination of endpoint criteria of treated animals (occurrence of ascitic fluid and body weight loss).\nMice were treated either with cromolyn (reference compound that is known to bind to S100P and block its extracellular activity, Arumugam T. et al. 2006. J. Natl. Cancer Inst. 98(24):1806-18), daily (5 mg/Kg body weight by ip injection) or with our antibodies against S100P (3F8 and 2H8), three times per week at 25 mg/Kg by ip injection, starting the treatment 24 hours after tumor implantation. At the end of the experiment (treatment of 30 days) animals were killed, pancreatic tumors were surgically removed, weighted and an staging and scoring system of peritoneal tumors, pancreatic tumors, lymph node metastases, organ metastases, and ascites was developed and recorded according to our TMPN scoring system (Table 2) modified from Hennig R. et al. 2005. Neoplasia, 7(4):417-425 to evaluate tumor progression. Scores from each category were multiplied with each other because patterns in medicine follow multiplicative, rather than additive, rules.\nScores for the primary tumor (T), organ metastases (M), peritoneal metastases (P), and lymph node metastases (N) were multiplied to calculate the total tumor score for each animal. Score P4 value is the sum of the corresponding P0, P1, P2, P3 (P0/1/2/3) plus an additional value of 3 for metastasis presence in the diaphragm, 3 for kidney, 3 for intestine and 3 for adrenal glands.\nBioluminescence imaging was conducted using a cryogenically cooled IVIS 100 imaging system coupled to a data acquisition computer running Living Image Software (Xenogen Corp). Before imaging, mice were placed in an acrylic chamber anesthetized with 2.5% isofluorane-air mixture, and injected intraperitoneally with 15 mg/mL of luciferin potassium salt in PBS at a dose of 150 mg/Kg body weight. At the end of experiment, after the primary tumors were removed, cancer cell dissemination and metastasis were visualized using IVIS imaging, and metastatic colonies were counted and measured (photons/second).\nComparisons between groups were made using the Kruskall-Wallis ANOVA on ranks as a nonparametric test. Differences for which P value was less than 0.05 were considered statistically significant."}, "[2]": {"test_system": "HT1080 human fibrosarcoma cell line", "assay": "HT1080 cell survival by MTT method", "quoted_text": "Briefly, HT1080 cells (1×10^4 cells/well) were plated onto 96-well cell culture plates in 50 μl of DMEM medium. Twenty-for hours later, 50 μl of medium with doxorubicin (240 nM or 1 μM) alone or in combination with either S100P or S100P combined with the antibodies (see FIG. 6) were added to each well and were cultured for 72 hours. Then 10 μl of a MTT solution (5 mg/ml PBS) was added to each well and after 4 hours cells were lysed, formazan product was solubilised with 100 μl of extraction buffer (15% SDS in 50% N,N-dimethylformamide pH 4.7) and colorimetric result was measured at 570 nm using a multi-well scanning spectrophotometer 5 hours after solubilization."}, "[3]": {"test_system": "BxPC3 pancreatic adenocarcinoma tumor cells", "assay": "Proliferation of BxPC3 tumor cells induced by S100P", "format": "cell-based, human", "details": "S100P 100 nM, 48 hours", "procedure": "The proliferation studies on the BxPC3 line were analyzed using the Cell Proliferation ELISA Biotrak™ System kit (GE Healthcare) following the manufacturer's instructions with some modifications. Three thousand cells were seeded in 50 μl of RPMI 1640 culture medium supplemented with 3% FCS in each well. The recombinant S100P protein (100 nM) alone or in combination with the antibodies was added to the cells in the same seeding medium to test the proliferative or inhibitory capacity thereof, respectively. To test the inhibitory effect of the 5D7, 4B12, 3E3, 7F1, 9F3, 6F1, 1A5, 3F8 and 2H8 monoclonal antibodies, a concentration of 500 nM of each antibody was incubated for 2 hours at 37° C. with the recombinant S100P protein before being added to the culture. After 48 hours at 37° C., the proliferation was determined. The two-tailed Mann-Whitney nonparametric test was used to compare the groups. A p value <0.05 was taken for the values to be statistically significant."}}, "note": "Where “and” joins values, the source holds several entries; their conditions need not be identical. Equal entries are not always repeated.", "data": [{"molecule": "O=C(O)c1cc(=O)c2c(OCC(O)COc3cccc4oc(C(=O)O)cc(=O)c34)cccc2o1", "note": "[Cromolyn, cromolyn]", "values": [{"measurement": "Total Score", "setting": "[1]; T x M x P x N scores multiplied", "value": "2600 and 1000 (2×) and 1300 and 1750 (2×)"}, {"measurement": "Tumor score", "setting": "[1]; TMPN score (Table 2), 30 days treatment, antibodies 25 mg/Kg ip three times per week, cromolyn 5 mg/Kg ip daily", "value": "4 (4×) and 5 (2×)"}, {"measurement": "Nodes score", "setting": "[1]; TMPN score", "value": 5}, {"measurement": "Organ Metastases, Liver score", "setting": "[1]; TMPN score", "value": 5}, {"measurement": "Organ Metastases, Lung score", "setting": "[1]; TMPN score", "value": "5 and 0 (5×)"}, {"measurement": "Peritoneal Metastases, Adrenals score", "setting": "[1]; TMPN score", "value": "3 and 0 (5×)"}, {"measurement": "Peritoneal Metastases, Diaphragm score", "setting": "[1]; TMPN score", "value": "0 and 3 (5×)"}, {"measurement": "Peritoneal Metastases, Intestine score", "setting": "[1]; TMPN score", "value": 3}, {"measurement": "Peritoneal Metastases, Kidney score", "setting": "[1]; TMPN score", "value": "3 (4×) and 0 (2×)"}, {"measurement": "Peritoneal Metastases, Peritoneum score", "setting": "[1]; TMPN score", "value": "4 (4×) and 5 (2×)"}]}, {"molecule": "COc1cccc2c1C(=O)c1c(O)c3c(c(O)c1C2=O)C[C@@](O)(C(=O)CO)C[C@@H]3O[C@H]1C[C@H](N)[C@H](O)[C@H](C)O1", "note": "[Doxorubicin, doxorubicin]", "values": [{"measurement": "IC50", "setting": "[2]; Homo sapiens, HT-1080, 72 h", "value": 240, "unit": "nM"}, {"measurement": "EC50", "setting": "[2]; Homo sapiens, HT-1080, read-out: Toxicity EC50", "value": 240, "unit": "nM"}]}, {"molecule": "B1", "values": [{"measurement": "proliferation increase compared to cells not treated with S100P", "setting": "[3]", "value": "~80", "unit": "%"}, {"measurement": "increase of growing respect to the non treated HT1080 cells", "setting": "[2]; S100P 500 nM, doxorubicin 240 nM, 72 h", "value": "approximately 40%"}]}]}
